One substance from paper PMC12830207, “Targeting the protein–protein interaction between the CDC37 cochaperone and client kinases by an allosteric RAF dimer breaker” (The Journal of Biological Chemistry, 2025) can be followed below.

Assay [1] deals with CRAF–CDC37/HSP90 chaperone complex. Kind of assay: Co-IP of MBP-CRAF-FLAG with endogenous CDC37–HSP90 chaperone complex. The assay is classed as cell-based, human (HEK293). The conditions noted are these: HEK293, 50 μM braftide, 4 h, bortezomib pretreatment, three biological replicates. The method, then:
HEK293 cells were seeded at 1(10)^6 cells per well for a 6-well plate or 5(10)^6 for 10 cm dishes and incubated until 40% to 60% confluency. Transfection was carried out using a 1:3 DNA:PEI-MAX ratio in OPTI-MEM and allowed 48 h for protein expression. For peptide assays, 48 h post-transfection, cells were treated with TAT–braftide carried in OPTI-MEM at indicated concentrations. Cells were harvested in cold PBS. Harvested cells were lysed in 4% SDS or modified radioimmunoprecipitation assay (RIPA) for co-IP experiments. Quantification of total protein by the bicinchoninic acid assay was carried out according to the manufacturer's protocols (Pierce; catalog no.: 23225).
Transfected HEK293 cells were treated with the indicated treatments and harvested in cold PBS. […] Samples were analyzed via immunoblot.
Western blot band densities were quantified with ImageJ software (National Institutes of Health) and normalized to the indicated loading control. Statistical significance was determined through one-/two-way ANOVA, where indicated, followed by Tukey's honest significant difference post hoc test with corresponding p values (∗p < 0.05, ∗∗p < 0.002, ∗∗∗p < 0.0002, and ∗∗∗∗p < 0.0001). […]

The next assay has as its system WM3629 cells. Kind of assay: WST-1 cell viability assay, WM3629. In kind it is cell-based. The conditions noted are these: WM3629, WST-1, 24 h. For orientation: Formazan colour is commonly taken as a measure of viable cells.
For the next assay, the target named is BRAF kinase domain. Kind of assay: Hydrogen–deuterium exchange MS. In kind it is binding, human. As to conditions: BRAF^KD 10 μM, braftide 30 μM, pH 7.4, 20 s to 4.5 h, duplicate HDX–MS. How it is done: The 6XHIS-BRAF KD (residues 442–723, supplementary information 1) was purified as previously reported ([39]) with the human sequence expressed in Escherichia coli. The KD contains 16 solubilizing mutations (I543A, I544S, I551K, Q562R, L588N, K630S, F667E, Y673S, A688R, L706S, Q709R, S713E, L716E, S720E, P722S, and K723G), which were determined to preserve kinase activity and increase protein expression in E. coli. Mutations of the 16 residues are not involved in MEK1 interactions ([40], [41]). […] Protein induction was induced by 1 mM IPTG, 16 °C in a shaking incubator, 200 RPM. The pellet was lysed in a buffer containing 50 mM Hepes (pH 7.4), 250 mM NaCl, 50 mM KCl, 10 mM imidazole, 10 mM β-mercaptoethanol, 10% glycerol, and 1X protease inhibitor (Roche) under sonication. […] Protein fractions were analyzed on SDS-PAGE, pooled, and flash frozen for analytical use.
The exchange times varied from 20 s to 4.5 h. […] Peptides were identified through MS/MS analysis of nondeuterated samples, with data analyzed using SEQUEST (Thermo Proteome Discoverer) against a database containing sequences of BRAF^KD, braftide, pepsin, potential contaminants, and decoy proteins. Deuterated samples were analyzed using ExMS2 software (developed by Englander Lab at University of Pennsylvania).

The test system of the next assay is HCT116 cells. Kind of assay: WST-1 cell viability assay, HCT116. The conditions noted are these: HCT116, WST-1, 24 h. In kind it is cell-based.
Assay [2] relates to MAPK proteins (BRAF, CRAF, MEK, pMEK, ERK, pERK). Kind of assay: Immunoblot of MAPK proteins in HCT116 cells. The assay is classed as cell-based. How it is done: Western blot band densities were quantified with ImageJ software (National Institutes of Health) and normalized to the indicated loading control. Statistical significance was determined through one-/two-way ANOVA, where indicated, followed by Tukey's honest significant difference post hoc test with corresponding p values (∗p < 0.05, ∗∗p < 0.002, ∗∗∗p < 0.0002, and ∗∗∗∗p < 0.0001). All graph bars represent the mean ± SD with individual data points per biological replicate with corresponding p values.
In general terms: Immunoblotting shows a protein as a band on a membrane.

Entries after “also recorded” stand apart in the source; their conditions may differ.

Description for WM3629 cells: HCT116 and WM3629 cells were seeded onto polylysine-coated, clear-bottomed, 96-well plates at 15(10)^3 cells per well and allowed to incubate for 24 h. Cells were treated with braftide and 17-AAG mixtures at indicated concentrations for 24 h (37 °C). The WST-1 cell viability assay was carried out according to the manufacturer's protocols (Roche; 11644807001) for 4 h, and absorbance readings were taken at 450 nM in a CLARIOstar plate reader. For the dose–response curves of braftide and 17-AAG, the data were fit to the 4-parameter logistic equation (dose–response fitting equation) in GraphPad Prism (Dotmatics): y=A1+(A2−A1)÷(1+10^(LOGx0−x)p)
Error bars are indicative of the SEM of each point.

As for “GRKKRRQRRRPQ-miniPEG-TRHVNILLFM [Braftide]”, the “association of CRAF with CDC37 and HSP90” value in assay [1] is “reduced their association with CDC37 and HSP90 compared with the nontreated control”. Moreover, the “synergy of braftide and 17-AAG, WM3629” value in the assay with WM3629 cells was “synergy between braftide and 17-AAG”. Besides, the “braftide binding region on BRAF KD / change in deuterium uptake” value at BRAF kinase domain is given as “slows deuterium incorporation compared to apo BRAF^KD; also recorded: essentially no change except in the dimer interface region”; on BRAF kinase domain (listed as braftide), “spanning amino acids 496 to 515”. Also, the “synergy of braftide and 17-AAG, HCT116” value in the assay on HCT116 cells was “synergy between braftide and 17-AAG”. Further, the “inhibition by monotherapy at 500 nM” value in assay [2] (HCT116, 500 nM single agent, immunoblot) is listed as “Neither 17-AAG nor braftide monotherapy exhibited obvious inhibition”. Besides, in assay [2] (HCT116, 10 µM braftide, 1 hr, 37°C, n=3), the “MAPK pathway protein levels, proteomics samples” value is “decreases MAPK pathway protein levels”.
